Results taken from patent US20190167640A1, “METHODS FOR TREATMENT OF MUSCULAR DYSTROPHIES” (Akashi Therapeutics, Inc., priority 2013, published 2019).
Entries after “also recorded” stand apart in the source; their conditions may differ.

What was measured:
[1] = test system: EDL muscle of exercised mdx mice; test: Isometric and eccentric contraction of EDL muscle after in vivo treatment; details: same treatments; for fatigue of EDL (drop during the first 5 tetani): tetani at 5 sec intervals
[2] = test system: EDL myofibers of exercised mdx mice; test: Mechanical threshold of EDL muscle (two microelectrode point voltage clamp); type: in vivo; details: for mechanical threshold: potential (voltage threshold) for fiber contraction of EDL myofibers: Compound (I) 30 mg/kg, nandrolone 5 mg/kg, PDN 1 mg/kg, 6 days/week, 4 weeks, all pulse durations; for rheobase voltage of EDL muscles / time constant to reach the rheobase, EDL myofibers: same treatments; for rheobase voltage of EDL muscles: calculated from fit of strength-duration curve; for time constant to reach the rheobase, EDL myofibers: from fit of strength-duration curve
Protocol: (§1) The chronic exercise consisted of 30 min running on horizontal treadmill at 12 m/min twice a week. Drug treatment started one day before the exercise protocol. At least 4 weeks of exercise were performed before starting the ex vivo experiments. In vivo parameters were monitored weekly throughout. Age of the mice at the time of ex-vivo experiments: 9-12 weeks. The effectiveness of the test compounds was then evaluated ex vivo for: • Mechanical properties of EDL muscle and diaphragm strips by isometric contraction • Mechanical threshold of EDL muscle, i.e. the voltage threshold for fiber contraction, as an index of excitation-contraction coupling mechanism and calcium homeostasis (two microelectode “point” voltage clamp method) • Cable parameters and macroscopic ionic conductance (two microelectrode current clamp recordings) • Spectrophotometric determination of plasma level of creatine kinase (CK), as an index of sarcolemmal damage, lactate dehydrogenase (LDH) as an index of metabolic sufferance, reactive oxygen species, as a marker of oxidative stress • Morphometric analysis of gastrocnemious (GC) muscle and diaphragm
Mechanical threshold (MT) is an electrophysiological index of excitation contraction-coupling and of calcium homeostasis (De Luca et al., JPET 2003; Fraysse et al., Neurobiol. Dis., 2004). The application of depolarizing voltage steps of increasing durations shifts the contraction for fiber contraction toward more negative potential until a constant rheobase voltage is reached. The rheobase voltage represents the voltage at which the calcium that is released from the sarcoplasmis reticulum and the calcium reuptaken are at the steady-state. A shift of rheobase voltage toward more negative potential, as occurring in dystrophic mdx EDL myofibers, is indicative of more calcium being available for contraction, either resulting from greater release or slower reuptake or higher basal cytosolic levels.
In FIG. 30A, the data, expressed as the means±S.E.M. from 14 to 30 values from 2 to 5 preparations, show the voltages for the contraction of EDL myofibres (mechanical threshold) at increasing pulse duration in wild-type mice (WT, black circles) and in mdx mice treated with either vehicle (corn oil and water; Mdx+VTOT, white circles), 30 mg/kg Compound (I) (white triangles), 5 mg/kg nandrolone (upside-down black triangles) or 1 mg/kg PDN (white rhombus). The drugs were given 6 days per week. […] For some data points, the standard error bar is not visible because it is smaller than the symbol size. In FIGS. 30B and 30C, the rheobase voltage, in mV and the time constant, in ms, with relative standard errors, have been calculated from the fit of data points of the voltage-duration curves in A. In FIG. 30D, the total resting membrane ionic conductances (gm) in μS/cm^2 of EDL muscle fibres of the same experimental groups described in A are shown. The bars represent the means±SEM from the number of 3-5 prep/25-37 fibres. For each parameter, the significant differences between groups were evaluated using ANOVA for multiple comparisons (F values) and the Bonferroni t-test post hoc correction. Significant differences were found for rheobase voltage (F>4; p<0.003) and gm (F>7; p<0.0002).
In FIG. 31A, the data, expressed as the means±S.E.M. from 27 to 41 values from 3 preparations, show the voltages for the contraction of EDL myofibres (mechanical threshold) at increasing pulse duration in wild type mice (WT, black circles) and in mdx mice treated with either corn oil (Mdx+V1, white circles) or Compound (I) at 0.3 (white square), 3 (black square) or 30 mg/kg (white triangles). The drugs were given 6 days per week. […] For some data points, the standard error bar is not visible because it is smaller than the symbol size. […]

[3] = test system: EDL myofibers of exercised mdx mice; test: Cable parameters and macroscopic ionic conductance of EDL myofibers (two microelectrode current clamp); type: in vivo; details: Compound (I) 30 mg/kg, nandrolone 5 mg/kg, PDN 1 mg/kg, 6 days/week, 4-6 weeks
Protocol: as §1
Passive cable properties are calculated for the spatial and temporal changes of membrane potential in response to a hyperpolarizing square current pulses. […]

exercised mdx mice = test: Spectrophotometric determination of plasma creatine kinase, lactate dehydrogenase and reactive oxygen species; type: in vivo; details: same treatments
Protocol: as §1
A marked elevation of plasma creatine kinase is a typical diagnostic marker of muscular dystrophy. In parallel an increase in lactate dehydrogenase is also observed as a sign of metabolic sufferance while an increase on reactive oxygen species can occur as a result of ongoing oxidative stress. Generally, these biochemical indices are further aggravated by the exercise protocol. However, in the present study all the three parameters CK, LDH and ROS were particularly altered in the sedentary mdx mice and therefore no remarkable effect of exercise was observed.

[4] = test system: diaphragm and GC muscle of exercised mdx mice; test: Histology and morphometric analysis of gastrocnemius (GC) muscle and diaphragm; type: in vivo; details: preliminary morphometric analysis (FIG. 23)
Protocol: as §1
Representative pictures of histology profile of diaphragm and GC muscles in the various experimental conditions are shown in FIG. 22.

[5] = test system: diaphragm strips of exercised mdx mice; test: Isometric contraction of diaphragm strips after in vivo treatment; details: for twitch tension of diaphragm strips: exercised mdx mice, Compound (I) 30 mg/kg s.c., nandrolone 5 mg/kg s.c., PDN 1 mg/kg i.p., 6 days/week, 4-6 weeks; for fatigue of diaphragm (drop of force after 5 repetitive tetani) / tetanic force of diaphragm: same treatments; for fatigue of diaphragm (drop of force after 5 repetitive tetani): 5 tetani at 100 Hz, 5 sec intervals; for tetanic force of diaphragm: vehicle-treated exercised mdx groups pooled together (FIG. 2B)
Protocol: Compound (I) and nandrolone were dissolved in 10% Ethanol/90% Corn Oil (Sigma-Aldrich) in order to have the final dosage needed in the volume of 0.1 ml/10 g body weight. PDN (from the commercial formulation URBASON) was diluted sterile water for injection (0.1 ml/10 g body weight). 40 mdx mice 5-6 weeks old (Charles River Italy for Jackson Lab) were first (at the beginning of the exercise/treatment period (Time 0)) randomized in groups homogeneous for body weight, fore limb strength and normalized force (fore limb strength/body weight), as follows: • 7 SEDENTARY MDX+VEHICLE (ethanol and corn oil) • 7 UNTREATED EXERCISED MDX+VEHICLE (ethanol and corn oil) • 9 EXERCISED MDX+Compound (I) 30 mg/kg • 8 EXERCISED MDX+Nandrolone 5 mg/kg • 3 EXERCISED MDX+VEHICLE (sterile water) • 6 EXERCISED MDX+PDN 1 mg/kg
The duration of the treatment was 4-6 weeks. At the end of 4 weeks, 34 mice remained on the protocol, as follows: • 7 SEDENTARY MDX+VEHICLE (ethanol and corn oil) • 7 UNTREATED EXERCISED MDX+VEHICLE (ethanol and corn oil) • 6 EXERCISED MDX+Compound (I) 30 mg/kg • 5 EXERCISED MDX+Nandrolone 5 mg/kg • 3 EXERCISED MDX+VEHICLE (sterile water) • 6 EXERCISED MDX+PDN 1 mg/kg
as §1
Standard isometric contraction measurements on both EDL muscle and diaphragm strips were obtained by electric field stimulation via two axial platinum wires. For each preparation, a preliminary stabilization procedure (for proper temperature equilibration and relaxation after handling) was followed by the determination of the optimal resting length, i.e. the resting tension that allowed the maximal tension to be elicited by 40V depolarizing steps of 0.2ms duration. The preparations were then allowed to rest for about 30 min before starting the recording procedure.
Twitch tension: 5 single twitches elicited by pulses of 40 V and 0.2 ms (every 30 sec)→determination of maximal twitch tension and contraction kinetic (time to peak and half relaxation time);
Force frequency curve: 450 ms trains of 0.2 ms 40V pulses from 10 to 140 Hz→determination of maximal tetanic tension and frequency for half-maximal activation (Hz50) Fatigue: 5 tetani at 100 Hz (450 ms) and 5 sec intervals→determination of % drop of tension

Row | Compound | frequency for half-maximal activation (Hz50) of EDL [1] | twitch/tetanus ratio of EDL [1] | fatigue of EDL (drop during the first 5 tetani) [1] | mechanical threshold: potential (voltage threshold) for fiber contraction of EDL myofibers [2] | rheobase voltage of EDL muscles [2] | time constant to reach the rheobase, EDL myofibers [2] | membrane resistance (Rm) and total membrane ionic conductance (gm) of EDL myofibers [3] | creatine kinase (CK) (exercised mdx mice) | lactate dehydrogenase (LDH) (exercised mdx mice) | fiber area of both normal and centronucleated fibers [4] | twitch tension of diaphragm strips [5] | fatigue of diaphragm (drop of force after 5 repetitive tetani) [5] | tetanic force of diaphragm [5] | twitch tension of EDL [1] | mechanical threshold: voltage threshold values of EDL myofibres ([2]; Compound (I) at 0.3, 3 or 30 mg/kg, 6 days per week, second study (up to 12 weeks), vs vehicle-treated mdx)
1 | C[C@H]1C[C@@H]2[C@H]([C@@H](O)C[C@@]3(C)[C@H]2CC[C@]3(O)C(=O)CO)[C@@]2(C)C=CC(=O)C=C12 [PDN, α-methyl-prednisolone] | no significant effects | slight but not significant decrease | partial recovery | less effective than Compound (I); also recorded: significantly more positive | values intermediate between untreated mdx and weight | effect of Compound (I) on this parameter was greater than that of nandrolone and PDN | effect consistent with that observed in previous studies | lack of effect | lack of effect | increase | the two anabolic compounds exerted a greater protection than PDN | protection was observed | significantly greater than those of untreated, although still lower than weight ones | – | –
2 | C[C@]12CC[C@H]3[C@@H](CCC4=CC(=O)CC[C@@H]43)[C@@H]1CC[C@@H]2O [nandrolone] | no significant effects | no effect | partial recovery | less effective than Compound (I); also recorded: significantly more positive | values intermediate between untreated mdx and weight | effect of Compound (I) on this parameter was greater than that of nandrolone and PDN | – | – | – | increase | greater than those of untreated ones and no more significantly different with respect to those of weight | – | significantly greater than those of untreated, although still lower than weight ones | tendency toward an increase | –
3 | CN1C(=O)N(c2ccc(C#N)c(C(F)(F)F)c2)C(=O)[C@@]1(CO)c1ccccc1 [Compound (I)] | no significant effects | no effect | – | significant shift of the potential for fiber contraction toward weight values; also recorded: significantly more positive | almost overlapping that of weight | remarkably shorter than those of untreated exercised and not significantly different with respect to that of weight | effects comparable to that of PDN | – | slight, but not significant reduction | – | greater than those of untreated ones and no more significantly different with respect to those of weight | protection was observed | significantly greater than those of untreated, although still lower than weight ones | – | significantly more positive
